{
  "source": "patent US8158779B2",
  "about": "“Antiviral nucleosides” (Medivir AB, priority 2006, dated 2012)",
  "key": {"HCV Pol": {"biological_target": "T1, HCV Pol (Hepatitis C virus genotype 1b, UniProt Q9WMX2)", "T1 construct": "expressed in transfected cells", "T1 sequence (Q9WMX2 2420-3010)": "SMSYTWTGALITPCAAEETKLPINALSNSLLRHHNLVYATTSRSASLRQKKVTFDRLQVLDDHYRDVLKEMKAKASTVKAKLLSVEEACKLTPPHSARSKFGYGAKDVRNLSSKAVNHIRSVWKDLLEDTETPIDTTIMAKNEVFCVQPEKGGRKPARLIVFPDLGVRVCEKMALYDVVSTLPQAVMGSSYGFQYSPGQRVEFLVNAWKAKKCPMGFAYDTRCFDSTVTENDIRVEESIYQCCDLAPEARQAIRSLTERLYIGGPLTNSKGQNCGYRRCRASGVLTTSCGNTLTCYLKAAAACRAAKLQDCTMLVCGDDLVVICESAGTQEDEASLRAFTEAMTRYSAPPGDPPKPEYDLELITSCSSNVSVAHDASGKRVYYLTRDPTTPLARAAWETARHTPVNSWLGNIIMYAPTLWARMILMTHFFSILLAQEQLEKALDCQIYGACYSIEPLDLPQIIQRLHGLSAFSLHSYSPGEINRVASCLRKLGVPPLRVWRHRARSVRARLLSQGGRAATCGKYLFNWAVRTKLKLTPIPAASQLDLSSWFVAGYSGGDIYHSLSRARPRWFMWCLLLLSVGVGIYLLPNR", "assay": "Renilla luciferase HCV replicon assay", "format": "cell-based"}, "in vitro": {"assay": "in vitro", "conditions": "human"}, "[1]": {"test_system": "Renilla luciferase HCV replicon cells (2209-23)"}, "[2]": {"test_system": "human primary hepatocytes", "assay": "Intracellular triphosphate concentration and half life", "format": "in vitro ADME", "conditions": "2 μM", "description": "The putative active species of the compounds of the invention is β-D-2′-deoxy-2′-β-C-methyl-4′-azidocytidine triphosphate. The stability of the triphosphate is determined in fresh human primary hepatocytes (CellzDirect or In Vitro Technologies) pre-incubated with tritiated parent compound. The hepatocytes are cultured on 6 well collagen coated plates (BD Biosciences), typically at 1.5 million cells/well using complete serum-containing medium (CellzDirect or In Vitro Technologies)/37° C./5% CO2. Various hepatocyte strains are available, such as Hu497, MHL-091806 and Hu504 and it is therefore useful to test such strains in parallel and calculate mean values from a range of strains.\nThe pre-incubation is typically for 24 hours with 2 μM of the tritiated parent at 10 μC/ml. […] The concentration of intracellular triphosphate is quantified at different time points up to 72 hours. […]\nAt the appropriate timepoint, cells are harvested by aspirating the cell culture medium and washing the cells with cold PBS. […] The parent and intracellular metabolites are identified by comparison of the retention times of the intracellular species in the radiochromatogram with the retention of non-radioactive reference standards spiked in the cell extract samples and detected by UV absorption, typically at 270 nm […]"}},
  "data": [
    {"smiles": "CC1C(n2ccc(N)nc2=O)OC(CO)(N=[N+]=[N-])C1O", "note": "(centres unmarked) [Compound 22, 4-Amino-1-(5-azido-4-hydroxy-5-hydroxymethyl-3-methyl-tetrahydro-furan-2-yl)-1H-pyrimidin-2-one]", "values": [
      {"measurement": "activity in cell based replicon assay for HCV polymerase activity (in words)", "setting": "HCV Pol", "result": "good activity"},
      {"measurement": "inhibition at 100 µM", "setting": "HCV Pol; 100 μM, cell based replicon assay, read-out: Maximum % Inhibition HCV Pol (100 μM)", "result": 98.6, "unit": "%"},
      {"measurement": "cytotoxicity at 100 µM", "setting": "in vitro", "result": 9.48, "unit": "%"},
      {"measurement": "cytotoxicity in the replicon assay (in words)", "setting": "[1]", "result": "low levels of cytoxicity"}
    ]},
    {"smiles": "C[C@@]1(F)[C@H](O)[C@@H](CO)O[C@H]1n1ccc(N)nc1=O", "note": "[PSI-6130, β-D-2′-deoxy-2′-fluoro-2′-β-C-methylcytidine]", "values": [
      {"measurement": "steady state triphosphate level at 24 hours", "setting": "[2]", "result": 1.3, "unit": "pM/million cells"}
    ]}
  ]
}
